Assay results published in patent publication US7186701B2, “Dehydrating agent and method for dehydrating moist article using the agent and dehydrated article obtained by the method” (Kabushiki Kaisha Hayashibara Seibutsu Kagaku Kenkyujo, priority 2001, dated 2007).
Read-outs that look alike come from different tables or passages of the source.

How the values were obtained:
[1] = system: α-isomaltosylglucosaccharide-forming enzyme; experiment: Influence of metal ions on α-isomaltosylglucosaccharide-forming enzyme activity (C11 strain); format: biochemical, Bacillus globisporus C11 strain; details: in the presence of 1 mM metal salt; None = 100
Experimental: The activities of these enzymes were assayed as follows: The activity of α-isomaltosylglucosaccharide-forming enzyme was assayed by dissolving maltotriose in 100 mM acetate buffer (pH 6.0) to give a concentration of 2% (w/v) for a substrate solution, adding 0.5 ml of an enzyme solution to 0.5 ml of the substrate solution, enzymatically reacting the mixture solution at 35° C. for 60 min, boiling the reaction mixture for 10 min to suspend the enzymatic reaction, and quantifying maltose, among the isomaltosyl maltose and maltose formed in the reaction mixture, on HPLC as described in Experiment 1. One unit activity of the α-isomaltosylglucosaccharide-forming enzyme was defined as the enzyme amount that forms one micromole of maltose per minute under the above enzymatic reaction conditions.
The influence of metal ions on the activity of α-isomaltosylglucosaccharide-forming enzyme was examined in the presence of 1 mM of any of metal salts according to the assay for the enzyme activity.

[2] = Dehydrating action: moisture absorption on standing at controlled relative humidity; format: physicochemical; details: for moisture content (%) by the Karl Fisher method: 25° C.
Source text: Anhydrous crystalline cyclotetrasaccharide; crystalline cyclotetrasaccharide, monohydrate; anhydrous amorphous cyclotetrasaccharide; and crystalline cyclotetrasaccharide, penta- or hexa-hydrate were experimented in detail on their dehydrating actions, particularly, moisture absorption abilities against saccharides and changes on standing. As a control, anhydrous crystalline α,α-trehalose, anhydrous amorphous α,α-trehalose, and crystalline α,α-trehalose, dihydrate, were used as saccharides. The experiments were as follows: […]

Aspergillus niger = experiment: Bacterial contamination of gelatinized starch (gyuhi); details: 25° C., open conditions
Experimental: The mixture was mixed with a mixer and further mixed to homogeneity with two parts by weight of a starch hydrolyzate, shaped, and roughly dried for two hours, while blowing 40° C. hot air to the contents, to obtain “gyuhi” (a rice paste with sugar).

[3] = Dehydration and pulverization of plain yogurt by non-reducing saccharide; set-up: unit not given here
Experimental: The anhydrous crystalline cyclotetrasaccharide; crystalline cyclotetrasaccharide, monohydrate; and anhydrous amorphous cyclotetrasaccharide were respectively prepared by the methods in Examples A-1, A-2, and A-3. As the crystalline α,α-trehalose, dihydrate, a commercially available “TREHA®” commercialized by Hayashibara Shoji Inc., Okayama, Japan, was used. The anhydrous crystalline α,α-trehalose and the anhydrous amorphous α,α-trehalose used in this experiment were prepared from a commercialized crystalline α,α-trehalose, dihydrate, using the methods disclosed in Examples for Reference 1 and 3 in Japanese Patent Kokai No. 170,221/94. To four parts by weight of a plain yogurt with a moisture content of about 77% was added either of the above saccharides in an amount of 11 to 16 parts by weight. The resultant mixtures were respectively placed in vats, allowed to stand at 25° C. for 24 hours, and macroscopically observed their change on standing. The judgement was conducted in such a manner of sufficiently dehydrating the resulting mixtures to be solidified, subjected to a pulverizer for pulverization, and evaluated as “◯”, when the solids were easily pulverized; “Δ”, when the dehydration of the resulting mixtures was rather insufficient and the pulverization of solids was substantially difficult, though the resulting mixtures were solidified; and “x”, when the dehydration of the resulting mixtures was insufficient and could not be pulverized by a pulverizer.

[4] = relative humidity 75%, 3 days after treatment
[5] = relative humidity 75%, 0 days after treatment
[6] = relative humidity 75%, 1 day after treatment
[7] = relative humidity 75%, 2 days after treatment
[8] = relative humidity 75%, 7 days after treatment

[Al+3] [Al^3+]
Relative activity (%) [1]: 100%

[Fe+2] [Fe^2+]
Relative activity (%) [1]: 100%

OC[C@H]1O[C@@H]2OC[C@H]3O[C@H](O[C@@H]4[C@@H](O)[C@@H](OC[C@H]5O[C@H](O[C@H]([C@H]2O)[C@@H]1O)[C@H](O)[C@@H](O)[C@@H]5O)O[C@H](CO)[C@H]4O)[C@H](O)[C@@H](O)[C@@H]3O [Saccharide A, anhydrous crystalline cyclotetrasaccharide]
moisture content (%) by the Karl Fisher method ([2]; relative humidity 60%, 0 days after treatment, listed as A): 0.2% | moisture content (%) by the Karl Fisher method ([2]; relative humidity 60%, 1 day after treatment, listed as A): 10.2% | moisture content (%) by the Karl Fisher method ([2]; relative humidity 60%, 2 days after treatment, listed as A): 10.3% | moisture content (%) by the Karl Fisher method ([2]; relative humidity 60%, 3 days after treatment, listed as A): 10.3% | moisture content (%) by the Karl Fisher method ([2]; relative humidity 60%, 7 days after treatment, listed as A): 10.4% | moisture content (%) by the Karl Fisher method ([2]; relative humidity 75%, 0 days after treatment, listed as A): 0.2% | moisture content (%) by the Karl Fisher method ([2]; relative humidity 75%, 1 day after treatment, listed as A): 13.9% | moisture content (%) by the Karl Fisher method ([2]; relative humidity 75%, 2 days after treatment, listed as A): 14.4% | moisture content (%) by the Karl Fisher method ([2]; relative humidity 75%, 3 days after treatment, listed as A): 14.4% | moisture content (%) by the Karl Fisher method ([2]; relative humidity 75%, 7 days after treatment, listed as A): 14.3% | moisture absorption level, % of its weight ([2]; relative humidity of 60%, listed as anhydrous crystalline cyclotetrasaccharide): about 10% | moisture absorption level, % of its weight ([2]; relative humidity of 75%): about 14% | bacterial contamination in gyuhi (Aspergillus niger; at 30 days on standing): found no bacterial contamination | Water content (before use) ([3]; listed as A): 0.2

OC[C@H]1O[C@@H]2OC[C@H]3O[C@H](O[C@@H]4[C@@H](O)[C@@H](OC[C@H]5O[C@H](O[C@H]([C@H]2O)[C@@H]1O)[C@H](O)[C@@H](O)[C@@H]5O)O[C@H](CO)[C@H]4O)[C@H](O)[C@@H](O)[C@@H]3O [Saccharide C, anhydrous amorphous cyclotetrasaccharide]
moisture content (%) by the Karl Fisher method ([2]; relative humidity 60%, 0 days after treatment, listed as C): 0.3% | moisture content (%) by the Karl Fisher method ([2]; relative humidity 60%, 1 day after treatment, listed as C): 13.7% | moisture content (%) by the Karl Fisher method ([2]; relative humidity 60%, 2 days after treatment, listed as C): 13.8% | moisture content (%) by the Karl Fisher method ([2]; relative humidity 60%, 3 days after treatment, listed as C): 13.9% | moisture content (%) by the Karl Fisher method ([2]; relative humidity 60%, 7 days after treatment, listed as C): 14.1% | moisture content (%) by the Karl Fisher method ([2]; relative humidity 75%, 0 days after treatment, listed as C): 0.3% | moisture content (%) by the Karl Fisher method ([2]; relative humidity 75%, 1 day after treatment, listed as C): 14.2% | moisture content (%) by the Karl Fisher method ([2]; relative humidity 75%, 2 days after treatment, listed as C): 13.6% | moisture content (%) by the Karl Fisher method ([2]; relative humidity 75%, 3 days after treatment, listed as C): 13.7% | moisture content (%) by the Karl Fisher method ([2]; relative humidity 75%, 7 days after treatment, listed as C): 13.7% | moisture absorption level, % of its weight ([2]; relative humidity of 60%, listed as anhydrous amorphous cyclotetrasaccharide): about 14% | Water content (before use) ([3]; listed as C): 0.3

OC[C@H]1O[C@H](O[C@H]2O[C@H](CO)[C@@H](O)[C@H](O)[C@H]2O)[C@H](O)[C@@H](O)[C@@H]1O [Saccharide E, anhydrous crystalline α,α-trehalose, reference compound]
moisture content (%) by the Karl Fisher method ([2]; relative humidity 75%, 0 days after treatment, listed as E): 0.3% | moisture content (%) by the Karl Fisher method ([2]; relative humidity 75%, 1 day after treatment, listed as E): 9.7% | moisture content (%) by the Karl Fisher method ([2]; relative humidity 75%, 2 days after treatment, listed as E): 9.6% | moisture content (%) by the Karl Fisher method [2, 4]: 9.8% | moisture content (%) by the Karl Fisher method ([2]; relative humidity 75%, 7 days after treatment, listed as E): 9.8% | Water content (before use) ([3]; listed as E): 0.3

OC[C@H]1O[C@H](O[C@H]2O[C@H](CO)[C@@H](O)[C@H](O)[C@H]2O)[C@H](O)[C@@H](O)[C@@H]1O [Saccharide F, anhydrous amorphous α,α-trehalose, reference compound]
moisture content (%) by the Karl Fisher method ([2]; relative humidity 75%, 0 days after treatment, listed as F): 0.8% | moisture content (%) by the Karl Fisher method ([2]; relative humidity 75%, 1 day after treatment, listed as F): 9.8% | moisture content (%) by the Karl Fisher method ([2]; relative humidity 75%, 2 days after treatment, listed as F): 9.7% | moisture content (%) by the Karl Fisher method ([2]; relative humidity 75%, 7 days after treatment, listed as F): 9.7% | Water content (before use) ([3]; listed as F): 0.8

O.O.OC[C@H]1O[C@H](O[C@H]2O[C@H](CO)[C@@H](O)[C@H](O)[C@H]2O)[C@H](O)[C@@H](O)[C@@H]1O [Saccharide G, crystalline α,α-trehalose, dihydrate, reference compound]
moisture content (%) by the Karl Fisher method [2, 5]: 9.7% | moisture content (%) by the Karl Fisher method [2, 6]: 9.7% | moisture content (%) by the Karl Fisher method [2, 7]: 9.7% | moisture content (%) by the Karl Fisher method [2, 4]: 9.8% | moisture content (%) by the Karl Fisher method [2, 8]: 9.8% | Water content (before use) [3]: 9.7

crystalline cyclotetrasaccharide, monohydrate [Saccharide B]
moisture content (%) by the Karl Fisher method ([2]; relative humidity 60%, 0 days after treatment): 2.7% | moisture content (%) by the Karl Fisher method ([2]; relative humidity 60%, 1 day after treatment): 2.7% | moisture content (%) by the Karl Fisher method ([2]; relative humidity 60%, 2 days after treatment): 2.8% | moisture content (%) by the Karl Fisher method ([2]; relative humidity 60%, 3 days after treatment): 2.8% | moisture content (%) by the Karl Fisher method ([2]; relative humidity 60%, 7 days after treatment): 2.9% | moisture content (%) by the Karl Fisher method [2, 5]: 2.7% | moisture content (%) by the Karl Fisher method [2, 6]: 14.0% | moisture content (%) by the Karl Fisher method [2, 7]: 14.0% | moisture content (%) by the Karl Fisher method [2, 4]: 14.1% | moisture content (%) by the Karl Fisher method [2, 8]: 14.1% | moisture absorption level, % of its weight ([2]; relative humidity of 75%): about 14% | Water content (before use) [3]: 2.7

crystalline cyclotetrasaccharide, penta- or hexa-hydrate [Saccharide D]
colonies of Aspergillus niger found in gyuhi, days on standing (Aspergillus niger; gyuhi with six parts by weight of saccharide): 15 days
